Here are results for 44 compounds from ChEMBL document CHEMBL3797078, “Potent, selective and orally bioavailable leucine-rich repeat kinase 2 (LRRK2) inhibitors” (Bioorg Med Chem Lett, 2016).

A value given as a limit tells only on which side of the number the result lay.

In general, Ki refers to a measure of affinity in units of concentration, obtained from inhibition or displacement. A lower Ki goes with tighter binding. The Cmax is the maximum level reached in the sampled fluid or tissue. The half-life is the time in which the quantity being followed falls by half. High values mean slow decline, low ones rapid decline. What is called clearance is the rate of elimination divided by the concentration. A low value points to a low capacity for elimination. As usually defined, the AUC is concentration integrated over time. Lower therefore signals low exposure. What is called bioavailability is the share of a dose that reaches the circulation, judged against a reference dose that is usually intravenous. As a reminder, the CLint scaled is a measure of how fast metabolising enzymes remove a compound, apart from limits set by blood flow.

Data set [1] deals with Leucine-rich repeat serine/threonine-protein kinase 2 (Homo sapiens, UniProt Q5S007).
Leucine-rich repeat serine/threonine-protein kinase 2, sequence (Q5S007 whole entry): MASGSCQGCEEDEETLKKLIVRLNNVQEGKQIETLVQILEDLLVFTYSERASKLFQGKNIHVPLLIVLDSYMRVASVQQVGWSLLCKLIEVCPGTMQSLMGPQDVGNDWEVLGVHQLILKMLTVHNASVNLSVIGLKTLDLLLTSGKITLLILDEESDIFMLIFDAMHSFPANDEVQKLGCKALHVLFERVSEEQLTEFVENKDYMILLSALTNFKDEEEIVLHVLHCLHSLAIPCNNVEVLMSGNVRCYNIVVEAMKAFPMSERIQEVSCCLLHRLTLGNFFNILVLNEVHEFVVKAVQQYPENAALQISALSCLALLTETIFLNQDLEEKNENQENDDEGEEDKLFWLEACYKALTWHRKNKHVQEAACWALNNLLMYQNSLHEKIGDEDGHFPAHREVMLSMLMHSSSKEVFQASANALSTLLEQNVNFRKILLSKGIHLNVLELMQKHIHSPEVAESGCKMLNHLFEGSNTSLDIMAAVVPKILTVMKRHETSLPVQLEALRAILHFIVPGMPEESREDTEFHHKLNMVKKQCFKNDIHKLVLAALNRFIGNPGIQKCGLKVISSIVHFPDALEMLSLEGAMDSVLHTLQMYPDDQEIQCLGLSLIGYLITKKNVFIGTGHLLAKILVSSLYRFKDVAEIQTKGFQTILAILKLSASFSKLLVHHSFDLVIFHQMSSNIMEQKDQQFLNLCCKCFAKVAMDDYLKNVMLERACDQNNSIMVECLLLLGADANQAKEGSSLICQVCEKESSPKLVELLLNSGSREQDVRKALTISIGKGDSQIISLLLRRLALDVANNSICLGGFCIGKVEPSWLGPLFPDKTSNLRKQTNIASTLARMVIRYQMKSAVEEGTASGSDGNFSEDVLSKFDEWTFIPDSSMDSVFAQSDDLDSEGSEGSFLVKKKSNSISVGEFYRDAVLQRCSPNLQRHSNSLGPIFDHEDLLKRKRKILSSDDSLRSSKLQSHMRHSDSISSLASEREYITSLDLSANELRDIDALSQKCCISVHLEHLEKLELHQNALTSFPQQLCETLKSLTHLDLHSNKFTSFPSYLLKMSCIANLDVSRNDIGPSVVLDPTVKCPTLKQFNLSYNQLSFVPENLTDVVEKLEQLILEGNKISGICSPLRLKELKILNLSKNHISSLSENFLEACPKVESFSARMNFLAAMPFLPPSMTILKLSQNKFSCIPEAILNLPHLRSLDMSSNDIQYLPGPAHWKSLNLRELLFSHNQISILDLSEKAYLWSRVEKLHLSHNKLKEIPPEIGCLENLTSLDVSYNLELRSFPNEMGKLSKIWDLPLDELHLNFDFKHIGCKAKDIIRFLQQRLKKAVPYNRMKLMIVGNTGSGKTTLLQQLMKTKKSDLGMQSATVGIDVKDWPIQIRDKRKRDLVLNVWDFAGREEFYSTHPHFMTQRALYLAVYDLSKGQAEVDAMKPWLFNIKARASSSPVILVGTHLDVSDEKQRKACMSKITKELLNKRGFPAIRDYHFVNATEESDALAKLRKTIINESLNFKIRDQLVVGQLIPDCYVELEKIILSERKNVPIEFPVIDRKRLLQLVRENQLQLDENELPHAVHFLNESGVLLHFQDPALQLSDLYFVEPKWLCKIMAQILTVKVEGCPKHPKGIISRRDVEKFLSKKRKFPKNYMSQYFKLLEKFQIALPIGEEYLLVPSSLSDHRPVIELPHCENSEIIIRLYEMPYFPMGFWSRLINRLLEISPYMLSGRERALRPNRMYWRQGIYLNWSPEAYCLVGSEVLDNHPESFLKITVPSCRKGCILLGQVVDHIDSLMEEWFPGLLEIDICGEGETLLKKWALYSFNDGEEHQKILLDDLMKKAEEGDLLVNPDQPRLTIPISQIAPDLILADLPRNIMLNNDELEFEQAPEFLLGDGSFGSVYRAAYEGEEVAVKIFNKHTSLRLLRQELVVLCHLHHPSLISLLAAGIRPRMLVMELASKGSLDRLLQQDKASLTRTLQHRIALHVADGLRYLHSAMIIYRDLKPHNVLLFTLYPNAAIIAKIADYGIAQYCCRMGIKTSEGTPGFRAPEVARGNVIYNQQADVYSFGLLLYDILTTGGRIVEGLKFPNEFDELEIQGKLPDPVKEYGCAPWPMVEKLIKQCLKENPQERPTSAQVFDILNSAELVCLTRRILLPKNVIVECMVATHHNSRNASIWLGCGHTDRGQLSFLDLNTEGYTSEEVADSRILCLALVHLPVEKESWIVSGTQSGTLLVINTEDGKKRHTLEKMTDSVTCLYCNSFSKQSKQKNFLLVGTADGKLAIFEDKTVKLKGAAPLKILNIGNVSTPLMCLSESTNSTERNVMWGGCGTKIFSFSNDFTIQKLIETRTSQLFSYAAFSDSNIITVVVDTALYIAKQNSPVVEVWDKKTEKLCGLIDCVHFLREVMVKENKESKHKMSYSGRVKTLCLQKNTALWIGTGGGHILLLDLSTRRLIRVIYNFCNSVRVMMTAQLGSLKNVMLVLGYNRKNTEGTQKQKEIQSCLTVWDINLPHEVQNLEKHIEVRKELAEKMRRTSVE
Description: Inhibition of GST-tagged human recombinant wild type LRRK2 using fluorescein- ERM as substrate after 1 hr by TR-FRET assay
Data set [2] is described as follows: in vivo. The conditions noted are these: rat, po, 10 mg/kg.
A short description of data set [3]: in vivo. The conditions noted are these: rat, iv, 2 mg/kg.
Description: Half life in rat at 2 mg/kg, iv
Data set [4] is described as follows: in vivo. The conditions noted are these: rat, plasma, iv, 2 mg/kg.
A short description of data set [5]: in vivo. The conditions noted are these: rat, po, 10 mg/kg. The source holds these as a separate data set.
Data set [6] is described as follows: in vivo. The conditions noted are these: rat, po, 10 mg/kg. This is another data set of the same source.
Another data set can be described thus: in vitro. Conditions: rat, in vivo.
Data set [7] can be described thus: in vivo. The conditions noted are these: rat, cerebrospinal fluid, ip, 5 mg/kg.
Description: Drug uptake in CSF in rat at 5 mg/kg, ip after 1 hr
Data set [8] in a line: in vivo. The conditions noted are these: rat, plasma, ip, 5 mg/kg.
Description: Plasma concentration in rat at 5 mg/kg, ip after 1 hr
Data set [9] is described as follows: Protein binding in rat plasma. Format: ADME, cell-free. The conditions noted are these: read-out: PPB (converted).

Description for in vitro: Intrinsic clearance in rat

In the case of `CSc1sc(-c2cc[nH]n2)c2c1C(=O)CC(C)(C)C2`, the Ki in data set [1] was found to be 377 nM. Still for that read-out and setting: then `CC1(C)CC(=O)c2c(SCCO)sc(-c3cc[nH]n3)c2C1`, with 515 nM; and `CCSc1sc(-c2cc[nH]n2)c2c1C(=O)CC(C)(C)C2`, with 156 nM.

In data set [1], `CC(C)Sc1sc(-c2cc[nH]n2)c2c1C(=O)CC(C)(C)C2` returned an inhibition constant Ki of 256 nM. In turn, `O=C1NCCc2c(-c3cc[nH]n3)sc(SC3CC3)c21` displayed a Ki in data set [1] of 614 nM. In the case of `CC[C@H]1CNC(=O)c2c(SCC3CC3)sc(-c3cc[nH]n3)c21`, in data set [1], the affinity corresponds to a Ki of 58 nM. Same read-out and setting: next, `O=C1NCCc2c(-c3cc[nH]n3)sc(Sc3ccccc3)c21`: 4460 nM. The same measure, in the same setting: then `CSc1sc(-c2cc[nH]n2)c2c1C(=O)N(C)CC2`, with 5570 nM; and `CSc1sc(-c2cc[nH]n2)c2c1C(=O)NC1(CCCC1)C2`, with 411 nM; and `CCCSc1sc(-c2cc[nH]n2)c2c1C(=O)NC[C@@H]2CC`, with 68 nM. In the case of `CSc1sc(-c2cc[nH]n2)c2c1C(=O)NC[C@H]2Cc1ccccc1`, the Ki in data set [1] amounted to 342 nM. Compound `CSc1sc(-c2cc[nH]n2)c2c1C(=O)N(c1ccccc1)CC2` showed an inhibition constant Ki in data set [1] of 4710 nM. Turning to `O=C1NCCc2c(-c3cc[nH]n3)sc(SC3CCCC3)c21`, the Ki in [1] turned out to be 459 nM. In the data set “in vivo [2]”, `CCCSc1sc(-c2cc[nH]n2)c2c1C(=O)NC[C@@H]2C` gave a Cmax of 16000 nM. Also, the half-life in “in vivo [3]” is 3.6 h. Also, the clearance in “in vivo [4]” stood at 11.9 mL/min/kg. For the same compound, the exposure (AUC) in the data set “in vivo [5]” was found to be 46.1 µM·h. In “in vivo [6]”, this compound displayed a bioavailability of 98%. In the data set “in vitro”, the CLint scaled worked out at 1200 mL/min/kg. In addition, the concentration at 1 h worked out at 150 nM in the data set “in vivo [7]” and 24400 nM in “in vivo [8]”. In [1], this compound displayed an inhibition constant (Ki) of 84 nM. In [1], `CCCc1sc(-c2cc[nH]n2)c2c1C(=O)CC(C)(C)C2` yielded an inhibitory constant (Ki) of 5290 nM.

Regarding `O=C1CCCc2c(-c3cc[nH]n3)sc(NC3CCCC3)c21`, the inhibition constant (Ki) in data set [1] is greater than 10000 nM. As to `CC1(C)CC(=O)c2c(S(C)(=O)=O)sc(-c3cc[nH]n3)c2C1`, in data set [1], the affinity, expressed as Ki, was 7130 nM. In data set [1], `CC1(C)CC(=O)c2c(SCc3ccccc3)sc(-c3cc[nH]n3)c2C1` displayed a Ki greater than 10000 nM. Still for that read-out and setting: next, `CSc1sc(-c2cc[nH]n2)c2c1C(=O)NC1(CCC1)C2`: 233 nM. Still for that read-out and setting: then `CC1(C)CC(=O)c2c(NC3CCCC3)sc(-c3cc[nH]n3)c2C1`, with 2790 nM; and `CSc1sc(-c2cc[nH]n2)c2c1C(=O)NC1(CC1)C2`, with greater than 10000 nM; and `CSc1sc(-c2cc[nH]n2)c2c1C(=O)NC[C@@H]2C`, with 319 nM. On the same count and under the same terms, then `CSc1sc(-c2cc[nH]n2)c2c1C(=O)N[C@H](c1cccnc1)C2`, with greater than 10000 nM; and `CSc1sc(-c2ccn(C)n2)c2c1C(=O)CC(C)(C)C2`, with 5580 nM; and `CCSc1sc(-c2cc[nH]n2)c2c1C(=O)NCC2`, with 589 nM. With `CSc1sc(-c2cc[nH]n2)c2c1C(=O)CCC2`, the concentration in the data set “in vivo [2]” peaked (Cmax) at 1600 nM. The same compound had a half-life in the data set “in vivo [3]” of 6.5 h. The compound further displayed a clearance in the data set “in vivo [4]” of 56 mL/min/kg. The AUC in the data set “in vivo [5]” is 3.8 µM·h. In the data set “in vivo [6]”, this compound returned a bioavailability of 33%. This compound also yielded a CLint scaled in “in vitro” of 6500 mL/min/kg. Further, the concentration at 1 h in the data set “in vivo [7]” amounted to 50 nM; in “in vivo [8]”, 2330 nM. Further, affinity in data set [1] was put at a Ki of 312 nM.

With `Cc1nnc(Sc2sc(-c3cc[nH]n3)c3c2C(=O)CC(C)(C)C3)s1`, the affinity in [1], expressed as Ki, was 993 nM. Consider `O=C1NCCc2c(-c3cc[nH]n3)sc(SC3CCCCC3)c21`, for which the inhibition constant (Ki) in data set [1] is 919 nM.

As to `CC1(C)CC(=O)c2c(OC3CCCC3)sc(-c3cc[nH]n3)c2C1`, the inhibition constant Ki in data set [1] was found to be 475 nM. Still for that read-out and setting: next, `CC1(C)CC(=O)c2c(SCC3CC3)sc(-c3cc[nH]n3)c2C1`: 172 nM; `CSc1sc(-c2cc[nH]n2)c2c1C(=O)NC[C@H]2C`: 603 nM; `CCCSc1sc(-c2cc[nH]n2)c2c1C(=O)NCC2`: 572 nM. As for `CSc1sc(-c2cc[nH]n2)c2c1C(=O)NCC2`, the Cmax in the data set “in vivo [2]” was determined as 4800 nM. The compound also showed a half-life in “in vivo [3]” of 1.4 h. Besides, the clearance in “in vivo [4]” was determined as 47.5 mL/min/kg. Further, the area under the curve (AUC) in “in vivo [5]” came to 14 µM·h. This compound showed a bioavailability in the data set “in vivo [6]” of 70%. This compound also came in with a CLint scaled in “in vitro” of 1300 mL/min/kg. Also, the concentration at 1 h in the data set “in vivo [7]” was determined as 500 nM; in the data set “in vivo [8]”, 28300 nM. The compound further returned a Ki in data set [1] of 3410 nM.

In the case of `O=C1CCCc2c(-c3cc[nH]n3)sc(SC3CCCC3)c21`, the Ki in data set [1] was determined as 295 nM. In data set [1], `CC1(C)CC(=O)c2c(SCCc3ccccc3)sc(-c3cc[nH]n3)c2C1` came in with a Ki of 1890 nM. The compound `CC(C)Sc1sc(-c2cc[nH]n2)c2c1C(=O)NCC2` yielded a Ki in data set [1] of 988 nM. In the case of `CC1(C)CC(=O)c2c(SC3CCCC3)sc(-c3cc[nH]n3)c2C1`, the peak level in the data set “in vivo [2]” (Cmax) was 120 nM. Also, the half-life in the data set “in vivo [3]” is 1.2 h. Moreover, in “in vivo [4]”, the clearance was determined as 95.5 mL/min/kg. This compound registered an AUC in the data set “in vivo [5]” of 0.01 µM·h. The same compound returned a bioavailability in “in vivo [6]” of 0.2%. The concentration at 1 h in the data set “in vivo [7]” turned out to be 10 nM; in the data set “in vivo [8]”, 970 nM. Affinity in data set [1] was put at a Ki of 389 nM. In [9], the fraction unbound is 0.007. In data set [1], `C[C@H]1CNC(=O)c2c(SCC3CC3)sc(-c3cc[nH]n3)c21` had a Ki of 83 nM. `CSc1sc(-c2cc[nH]n2)c2c1C(=O)NC(C)C2` (racemic): in data set [1], the Ki stood at 1240 nM. The same measure, in the same setting: then `CSc1sc(-c2cc[nH]n2)c2c1C(=O)NC(C1CCC1)C2` (racemic), with 1050 nM. The same measure, in the same setting: then `CSc1sc(-c2cc[nH]n2)c2c1C(=O)NC(C(F)(F)F)C2` (racemic), with 501 nM. Same read-out and setting: next, `CSc1sc(-c2cc[nH]n2)c2c1C(=O)NC(Cc1ccccc1)C2` (racemic): 928 nM; `CSc1sc(-c2cc[nH]n2)c2c1C(=O)NC(c1cccc(F)c1)C2` (racemic): 3290 nM; `CSc1sc(-c2cc[nH]n2)c2c1C(=O)NC(c1ccc(F)cc1)C2` (racemic): 271 nM.
